Entries after “also recorded” stand apart in the source; their conditions may differ.
Tested on: RAW 264.7 macrophages
Experiment: NO production in RAW 264.7 macrophages stimulated with LPS or other microbial products (Griess reaction)
Format: cell-based, mouse
Procedure: Effects of various microbial products on macrophages in vitro and anti-inflammatory effects by various peptides of HCII and TFPI. 3.5×10^5 cells were seeded in 96-well tissue culture plates (Nunc, 167008) in phenol red-free DMEM (Gibco) supplemented with 10% FBS and antibiotics. Following 6 hours of incubation to permit adherence, cells were stimulated with 10 ng/mL E. coli (0111:B4) LPS (Sigma), lipoteichoic acid, peptioglycan, or zymosan, with and without peptides at the indicated doses (se figure legends and figures). The levels of NO in culture supernatants were determined after 24 hours from stimulation using the Griess reaction. Briefly, nitrite, a stable product of NO degradation, was measured by mixing 50 μl of culture supernatants with the same volume of Griess reagent (Sigma, G4410) and reading absorbance at 550 nm after 15 min. Phenol-red free DMEM with FBS and antibiotics were used as a blank. A standard curve was prepared using 0-80 μM sodium nitrite solutions in ddH20.
LPS effects on macrophages in vitro—[…] cells were seeded in 96-well tissue culture plates (Nunc, 167008) in phenol red-free DMEM (Gibco) supplemented with 10% FBS containing 1% Anti-Anti (Invitrogen). Following 20 hours of incubation to permit adherence, cells were washed and stimulated with 10 ng/ml E. coli (0111:B4) or P. aeruginosa LPS (Sigma), with and without the peptides GGL27, GGL27(S), and DSE25 of various doses. The levels of NO in culture supernatants were determined after 24 hours from stimulation using the Griess reaction (27). Briefly, nitrite, a stable product of NO degradation, was measured by mixing 50 μl of culture supernatants with the same volume of Griess reagent (Sigma, G4410) and reading absorbance at 550 nm after 15 min. Phenol-red free DMEM with FBS and antibiotics were used as a blank. A standard curve was prepared using 0-80 μM sodium nitrite solutions in ddH20.

GGLIKTKRKRKKQRVKIAYEEIFVKNM [GGL27, C-terminal peptide of TFPI, plasmin-generated]
anti-endotoxic effects in vitro: anti-endotoxic effects
LPS-mediated NO release (LPS from E. coli or P. aeruginosa, peptide at indicated concentrations (FIG. 41C)): inhibits NO production; also recorded: inhibited LPS-mediated NO-release

From patent US20120189673A1, “POLYPEPTIDES AND USES THEREOF” (priority 2009, published 2012)
